# Values quoted from earlier work in paper PMC6276840, “Challenges and Opportunities of Nanotechnology as Delivery Platform for Tocotrienols in Cancer Therapy” (Frontiers in Pharmacology, 2018).
# Assays:
# [1] = design: method as in Yap et al., 2003; conditions: rats; ref Yap et al., 2003
# MCF-7 = MCF-7 cells; ref Alayoubi et al., 2013
# MDA-MB-231 = MDA-MB-231 cells; ref Alayoubi et al., 2013
# [2] = design: method as in Lorusso et al., 2007; Rafiyath et al., 2012; Rom et al., 2014; conditions: when delivered in liposomes; ref Lorusso et al., 2007; Rafiyath et al., 2012; Rom et al., 2014
compound,measurement,setting,value
CC(C)=CCC/C(C)=C/CC/C(C)=C/CC[C@]1(C)CCc2c(C)c(O)c(C)c(C)c2O1 [α-tocotrienol],absolute oral bioavailability,[1],less than 30%
CC(C)=CCC/C(C)=C/CC/C(C)=C/CC[C@]1(C)CCc2cc(O)cc(C)c2O1 [δ-tocotrienol],absolute oral bioavailability,[1],less than 10%
CCC(C)(C)C(=O)O[C@H]1C[C@@H](C)C=C2C=C[C@H](C)[C@H](CC[C@@H]3C[C@@H](O)CC(=O)O3)[C@H]21 [simvastatin],IC50,MCF-7,19 µM
same,IC50,MDA-MB-231,8 µM
COc1cccc2c1C(=O)c1c(O)c3c(c(O)c1C2=O)C[C@@](O)(C(=O)CO)C[C@@H]3O[C@H]1C[C@H](N)[C@H](O)[C@H](C)O1 [doxorubicin],cardiotoxicity,[2],markedly reduced
same,hematological toxicity and palmar–plantar erythrodysesthesia,[2],increased incidence
CC(C)=CCC/C(C)=C/CC/C(C)=C/CC[C@]1(C)CCc2cc(O)c(C)c(C)c2O1 [γ-tocotrienol],absolute oral bioavailability,[1],less than 10%
